Assay results: ChEMBL document CHEMBL1201862, “PubChem BioAssay data set” (2004)
Each block holds one compound with its values, some of them ahead of it. Activity calls are given as the source filed them.

Columns and labels:
Format in all cases: functional
[1] = molecular target: T1, High affinity choline transporter 1 (Homo sapiens, UniProt Q9GZV3); experiment: CHT inhibitors, dose response, cell-based, 10-point CRC, membrane potential dye (AID 588401);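 further: membrane potential dye fluorescence of choline-evoked depolarization via CHT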
T1 sequence (Q9GZV3 whole entry): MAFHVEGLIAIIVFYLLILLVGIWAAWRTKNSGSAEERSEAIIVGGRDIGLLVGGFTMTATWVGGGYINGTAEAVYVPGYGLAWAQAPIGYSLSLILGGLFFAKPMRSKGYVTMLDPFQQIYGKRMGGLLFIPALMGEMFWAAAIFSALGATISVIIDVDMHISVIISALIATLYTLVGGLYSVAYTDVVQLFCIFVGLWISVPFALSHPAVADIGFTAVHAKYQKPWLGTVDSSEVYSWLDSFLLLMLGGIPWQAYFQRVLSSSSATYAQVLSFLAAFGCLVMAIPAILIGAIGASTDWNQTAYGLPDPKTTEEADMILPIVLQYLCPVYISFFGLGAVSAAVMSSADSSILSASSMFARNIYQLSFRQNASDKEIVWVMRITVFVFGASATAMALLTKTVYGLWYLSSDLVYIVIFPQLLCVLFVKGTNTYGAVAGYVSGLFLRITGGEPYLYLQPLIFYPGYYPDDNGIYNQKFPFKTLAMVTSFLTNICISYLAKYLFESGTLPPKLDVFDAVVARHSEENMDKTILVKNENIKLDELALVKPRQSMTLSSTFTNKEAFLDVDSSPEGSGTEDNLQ

[2] = molecular target: T1, High affinity choline transporter 1; experiment: CHT inhibitors, dose response, cell-based, 5-point CRC, membrane potential dye (AID 504840)
[3] = molecular target: Aurora kinase A (Homo sapiens, UniProt O14965);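 further: value from the Navigating the Kinome kinase panel profiling, panel entry STK6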
[4] = molecular target: Dual specificity tyrosine-phosphorylation-regulated kinase 1B (Homo sapiens, UniProt Q9Y463); experiment: Navigating the Kinome. Panel member name: DYRK1B
[5] = molecular target: Activated CDC42 kinase 1 (Homo sapiens, UniProt Q07912); experiment: Navigating the Kinome. Panel member name: ACK1
[6] = molecular target: Serine/threonine-protein kinase TAO1 (Homo sapiens, UniProt Q7L7X3)
[7] = molecular target: Tyrosine-protein kinase Fyn (Homo sapiens, UniProt P06241)
[8] = molecular target: Fibroblast growth factor receptor 1 (Homo sapiens, UniProt P11362)
[9] = molecular target: ALK tyrosine kinase receptor (Homo sapiens, UniProt Q9UM73);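 further: ALK tested as one member of a kinase panel screen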
[10] = molecular target: Protein kinase C theta type (Homo sapiens, UniProt Q04759); experiment: Navigating the Kinome. Panel member name: PRKCQ
[11] = molecular target: Cyclin-dependent kinase 9 (Homo sapiens, UniProt P50750);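 further: value from the CDK9 entry of a kinome-spanning kinase panel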
[12] = molecular target: Calcium/calmodulin-dependent protein kinase type II subunit alpha (Homo sapiens, UniProt Q9UQM7); experiment: Navigating the Kinome. Panel member name: CAMK2A
[13] = molecular target: Rho-associated protein kinase 1 (Homo sapiens, UniProt Q13464);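 further: measured within a broad kinome-wide panel profiling many kinases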
[14] = molecular target: Dual specificity protein kinase CLK4 (Homo sapiens, UniProt Q9HAZ1)
[15] = molecular target: Tyrosine-protein kinase JAK2 (Homo sapiens, UniProt O60674);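 further: JAK2 tested as one member of a kinase panel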
[16] = molecular target: Platelet-derived growth factor receptor alpha (Homo sapiens, UniProt P16234); experiment: Navigating the Kinome. Panel member name: PDGFRA
[17] = molecular target: Tyrosine-protein kinase ABL1 (Homo sapiens, UniProt P00519)
[18] = molecular target: Mitogen-activated protein kinase 8 (Homo sapiens, UniProt P45983);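 further: value comes from one member of a kinome-wide kinase profiling panel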
[19] = molecular target: Serine/threonine-protein kinase PAK 4 (Homo sapiens, UniProt O96013);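 further: value obtained within a kinome profiling panel in which PAK4 was one of the panel members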
[20] = molecular target: Tyrosine-protein kinase Lck (Homo sapiens, UniProt P06239);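 further: lck was assayed as one member of a kinase panel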
[21] = molecular target: Platelet-derived growth factor receptor beta (Homo sapiens, UniProt P09619);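 further: value comes from a kinome panel, with PDGFRB tested as one panel member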
[22] = molecular target: Dual specificity tyrosine-phosphorylation-regulated kinase 1A (Homo sapiens, UniProt Q13627);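 further: measured against DYRK1A as one member of a broad kinome profiling panel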
[23] = molecular target: Macrophage colony-stimulating factor 1 receptor (Homo sapiens, UniProt P07333);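 further: value comes from the Navigating the Kinome screening panel, CSF1R member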
[24] = molecular target: Serine/threonine-protein kinase Nek2 (Homo sapiens, UniProt P51955)
[25] = molecular target: Macrophage-stimulating protein receptor (Homo sapiens, UniProt Q04912); experiment: Navigating the Kinome. Panel member name: MST1R
[26] = molecular target: Vascular endothelial growth factor receptor 1 (Homo sapiens, UniProt P17948);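 further: measured within a kinome-wide profiling panel, FLT1 as the panel member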
[27] = molecular target: BDNF/NT-3 growth factors receptor (Homo sapiens, UniProt Q16620);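 further: NTRK2 measured as one member of a broad kinome-wide kinase profiling panel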
[28] = molecular target: Mitogen-activated protein kinase 9 (Homo sapiens, UniProt P45984);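 further: value from a kinome panel profiling assay, MAPK9 panel entry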
[29] = molecular target: Glycogen synthase kinase-3 beta (Homo sapiens, UniProt P49841);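 further: value comes from a broad kinome profiling panel, with GSK3B as the panel member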
[30] = molecular target: Glycogen synthase kinase-3 alpha (Homo sapiens, UniProt P49840);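 further: GSK3A result taken from a broad kinome-wide kinase panel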
[31] = molecular target: 5'-AMP-activated protein kinase catalytic subunit alpha-1 (Homo sapiens, UniProt Q13131)
[32] = molecular target: Leucine-rich repeat serine/threonine-protein kinase 2 (Homo sapiens, UniProt Q5S007);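 further: value from a broad kinome-wide panel profiling study in which LRRK2 was one of the kinases tested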
[33] = molecular target: Mitogen-activated protein kinase kinase kinase kinase 4 (Homo sapiens, UniProt O95819)
[34] = molecular target: Mitogen-activated protein kinase 14 (Homo sapiens, UniProt Q16539);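 further: part of a kinome-wide panel, MAPK14 entry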
[35] = molecular target: Aurora kinase B (Homo sapiens, UniProt Q96GD4)
[36] = molecular target: Insulin-like growth factor 1 receptor (Homo sapiens, UniProt P08069); experiment: Navigating the Kinome. Panel member name: IGF1R
[37] = molecular target: Tyrosine-protein kinase receptor TYRO3 (Homo sapiens, UniProt Q06418);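 further: TYRO3 value obtained as one member of a kinome-wide profiling panel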
[38] = molecular target: Activin receptor type-1 (Homo sapiens, UniProt Q04771); experiment: Navigating the Kinome. Panel member name: ACVR1
[39] = molecular target: Serine/threonine-protein kinase Chk1 (Homo sapiens, UniProt O14757);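 further: measured as one member of a kinome-wide kinase profiling panel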
[40] = molecular target: Vascular endothelial growth factor receptor 2 (Homo sapiens, UniProt P35968)
[41] = molecular target: Serine/threonine-protein kinase D3 (Homo sapiens, UniProt O94806);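 further: determined within a kinase panel screen, with PRKCN as the panel member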
[42] = molecular target: cAMP-dependent protein kinase catalytic subunit PRKX (Homo sapiens, UniProt P51817)
[43] = molecular target: Inhibitor of nuclear factor kappa-B kinase subunit epsilon (Homo sapiens, UniProt Q14164); experiment: Navigating the Kinome. Panel member name: IKBKE
[44] = molecular target: Cyclin-dependent kinase 8 (Homo sapiens, UniProt P49336); experiment: Navigating the Kinome. Panel member name: CDK8
[45] = molecular target: Cyclin-dependent kinase 7 (Homo sapiens, UniProt P50613);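 further: value comes from a kinome-wide kinase profiling panel in which CDK7 is one member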
[46] = molecular target: Casein kinase I isoform alpha (Homo sapiens, UniProt P48729)
[47] = molecular target: Tyrosine-protein kinase JAK3 (Homo sapiens, UniProt P52333)
[48] = molecular target: Receptor-type tyrosine-protein kinase FLT3 (Homo sapiens, UniProt P36888);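 further: FLT3 was tested as one member of a kinome-wide kinase panel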
[49] = molecular target: Leukocyte tyrosine kinase receptor (Homo sapiens, UniProt P29376); experiment: Navigating the Kinome. Panel member name: LTK
[50] = molecular target: Serine/threonine-protein kinase pim-1 (Homo sapiens, UniProt P11309)
[51] = molecular target: Serine/threonine-protein kinase TBK1 (Homo sapiens, UniProt Q9UHD2); experiment: Navigating the Kinome. Panel member name: TBK1
[52] = molecular target: Dual specificity mitogen-activated protein kinase kinase 1 (Homo sapiens, UniProt Q02750); experiment: Navigating the Kinome. Panel member name: MAP2K1
[53] = molecular target: LIM domain kinase 1 (Homo sapiens, UniProt P53667); experiment: Navigating the Kinome. Panel member name: LIMK1
[54] = molecular target: Dual specificity mitogen-activated protein kinase kinase 2 (Homo sapiens, UniProt P36507); experiment: Navigating the Kinome. Panel member name: MAP2K2
[55] = molecular target: cAMP-dependent protein kinase catalytic subunit alpha (Homo sapiens, UniProt P17612)
[56] = molecular target: High affinity nerve growth factor receptor (Homo sapiens, UniProt P04629);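 further: NTRK1 tested as one member of a kinome-wide profiling panel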
[57] = molecular target: Death-associated protein kinase 3 (Homo sapiens, UniProt O43293);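 further: measured as one member of a kinome-wide profiling panel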
[58] = molecular target: Dual specificity protein kinase CLK2 (Homo sapiens, UniProt P49760)
[59] = molecular target: Mitogen-activated protein kinase kinase kinase kinase 2 (Homo sapiens, UniProt Q12851);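 further: measured as one member of a kinome-wide kinase panel, with MAP4K2 as the panel entry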
[60] = molecular target: Cyclin-dependent kinase 5 (Homo sapiens, UniProt Q00535);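 further: CDK5 measured as one member of a kinase profiling panel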

Sequence of Tyrosine-protein kinase ABL1 (P00519 whole entry): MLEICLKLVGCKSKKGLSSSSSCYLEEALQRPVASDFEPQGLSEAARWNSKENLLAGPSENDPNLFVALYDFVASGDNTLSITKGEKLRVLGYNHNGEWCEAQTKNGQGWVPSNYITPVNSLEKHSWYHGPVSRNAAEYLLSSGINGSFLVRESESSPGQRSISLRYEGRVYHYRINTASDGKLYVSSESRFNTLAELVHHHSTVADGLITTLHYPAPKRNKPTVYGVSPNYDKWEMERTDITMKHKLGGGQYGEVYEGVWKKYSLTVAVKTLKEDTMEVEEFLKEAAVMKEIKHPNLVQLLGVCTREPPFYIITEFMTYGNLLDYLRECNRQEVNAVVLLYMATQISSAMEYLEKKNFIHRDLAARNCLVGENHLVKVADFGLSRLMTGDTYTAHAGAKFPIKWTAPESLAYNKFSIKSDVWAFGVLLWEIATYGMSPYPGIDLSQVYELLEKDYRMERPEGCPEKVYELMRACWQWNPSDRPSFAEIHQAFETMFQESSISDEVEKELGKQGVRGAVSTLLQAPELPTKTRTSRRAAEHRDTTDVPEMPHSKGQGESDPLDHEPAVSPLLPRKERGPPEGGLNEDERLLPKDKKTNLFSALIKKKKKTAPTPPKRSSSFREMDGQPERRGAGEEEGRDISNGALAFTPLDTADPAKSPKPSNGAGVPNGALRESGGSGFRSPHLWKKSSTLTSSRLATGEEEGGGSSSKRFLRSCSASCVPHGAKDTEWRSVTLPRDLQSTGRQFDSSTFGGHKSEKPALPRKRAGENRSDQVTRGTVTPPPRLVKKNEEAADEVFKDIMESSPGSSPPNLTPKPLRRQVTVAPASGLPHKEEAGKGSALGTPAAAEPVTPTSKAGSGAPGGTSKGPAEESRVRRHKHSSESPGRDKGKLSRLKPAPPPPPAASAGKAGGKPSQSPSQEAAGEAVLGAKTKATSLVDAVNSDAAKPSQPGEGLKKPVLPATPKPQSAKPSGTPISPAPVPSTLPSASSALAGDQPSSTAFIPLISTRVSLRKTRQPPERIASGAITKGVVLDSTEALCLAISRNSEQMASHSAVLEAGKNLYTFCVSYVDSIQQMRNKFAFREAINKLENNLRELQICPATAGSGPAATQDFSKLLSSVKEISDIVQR
Sequence of BDNF/NT-3 growth factors receptor (Q16620 whole entry): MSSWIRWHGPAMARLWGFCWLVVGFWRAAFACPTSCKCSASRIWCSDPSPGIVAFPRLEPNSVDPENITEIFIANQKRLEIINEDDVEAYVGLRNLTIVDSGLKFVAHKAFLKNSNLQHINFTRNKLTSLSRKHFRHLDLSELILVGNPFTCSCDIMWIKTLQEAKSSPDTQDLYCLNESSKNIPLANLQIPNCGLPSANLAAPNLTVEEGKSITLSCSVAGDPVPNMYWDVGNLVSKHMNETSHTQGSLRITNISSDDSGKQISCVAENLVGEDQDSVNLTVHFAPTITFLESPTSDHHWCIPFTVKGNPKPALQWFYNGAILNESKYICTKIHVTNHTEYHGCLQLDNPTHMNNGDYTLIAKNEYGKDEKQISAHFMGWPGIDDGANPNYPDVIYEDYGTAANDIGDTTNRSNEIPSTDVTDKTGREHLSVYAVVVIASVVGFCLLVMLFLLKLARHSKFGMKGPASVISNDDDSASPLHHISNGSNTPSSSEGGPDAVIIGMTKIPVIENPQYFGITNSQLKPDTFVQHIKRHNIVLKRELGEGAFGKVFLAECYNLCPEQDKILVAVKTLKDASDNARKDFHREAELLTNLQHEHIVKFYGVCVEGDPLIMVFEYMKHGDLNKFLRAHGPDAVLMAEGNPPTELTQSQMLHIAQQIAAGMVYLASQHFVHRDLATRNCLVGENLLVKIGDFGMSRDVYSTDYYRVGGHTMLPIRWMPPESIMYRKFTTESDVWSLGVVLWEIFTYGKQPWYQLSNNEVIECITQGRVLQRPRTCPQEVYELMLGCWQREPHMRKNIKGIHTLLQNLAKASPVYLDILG
Sequence of Mitogen-activated protein kinase kinase kinase kinase 4 (O95819 whole entry): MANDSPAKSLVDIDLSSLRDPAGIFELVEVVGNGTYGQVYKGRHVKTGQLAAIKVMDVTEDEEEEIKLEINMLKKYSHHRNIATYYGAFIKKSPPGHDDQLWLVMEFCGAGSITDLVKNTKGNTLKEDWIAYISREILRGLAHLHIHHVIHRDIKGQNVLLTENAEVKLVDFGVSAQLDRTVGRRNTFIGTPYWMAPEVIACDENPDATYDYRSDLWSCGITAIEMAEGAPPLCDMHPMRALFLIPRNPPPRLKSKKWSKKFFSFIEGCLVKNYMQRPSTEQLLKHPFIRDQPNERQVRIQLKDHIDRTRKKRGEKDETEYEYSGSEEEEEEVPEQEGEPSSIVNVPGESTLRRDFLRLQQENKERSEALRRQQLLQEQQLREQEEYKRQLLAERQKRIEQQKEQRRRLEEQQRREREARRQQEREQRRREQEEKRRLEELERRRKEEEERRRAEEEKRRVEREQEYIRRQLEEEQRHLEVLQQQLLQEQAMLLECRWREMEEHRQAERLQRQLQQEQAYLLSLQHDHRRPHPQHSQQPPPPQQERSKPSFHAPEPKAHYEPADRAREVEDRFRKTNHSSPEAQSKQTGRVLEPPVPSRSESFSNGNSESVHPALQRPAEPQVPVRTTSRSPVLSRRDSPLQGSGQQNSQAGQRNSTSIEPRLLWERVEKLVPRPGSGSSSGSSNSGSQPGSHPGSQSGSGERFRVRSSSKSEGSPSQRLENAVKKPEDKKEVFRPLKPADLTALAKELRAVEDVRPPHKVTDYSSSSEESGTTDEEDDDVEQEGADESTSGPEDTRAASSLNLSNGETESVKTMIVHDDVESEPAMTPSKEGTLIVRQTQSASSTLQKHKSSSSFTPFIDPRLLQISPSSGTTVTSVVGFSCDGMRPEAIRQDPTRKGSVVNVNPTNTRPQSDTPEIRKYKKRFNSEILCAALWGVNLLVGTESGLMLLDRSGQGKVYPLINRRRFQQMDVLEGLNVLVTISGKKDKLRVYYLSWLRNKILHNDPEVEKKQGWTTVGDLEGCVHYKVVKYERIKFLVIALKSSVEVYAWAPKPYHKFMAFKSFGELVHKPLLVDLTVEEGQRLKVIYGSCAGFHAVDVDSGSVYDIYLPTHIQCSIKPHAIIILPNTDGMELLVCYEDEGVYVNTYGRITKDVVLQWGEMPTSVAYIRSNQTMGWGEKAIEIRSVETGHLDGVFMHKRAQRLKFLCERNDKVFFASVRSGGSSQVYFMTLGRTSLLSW
Sequence of Mitogen-activated protein kinase kinase kinase kinase 2 (Q12851 whole entry): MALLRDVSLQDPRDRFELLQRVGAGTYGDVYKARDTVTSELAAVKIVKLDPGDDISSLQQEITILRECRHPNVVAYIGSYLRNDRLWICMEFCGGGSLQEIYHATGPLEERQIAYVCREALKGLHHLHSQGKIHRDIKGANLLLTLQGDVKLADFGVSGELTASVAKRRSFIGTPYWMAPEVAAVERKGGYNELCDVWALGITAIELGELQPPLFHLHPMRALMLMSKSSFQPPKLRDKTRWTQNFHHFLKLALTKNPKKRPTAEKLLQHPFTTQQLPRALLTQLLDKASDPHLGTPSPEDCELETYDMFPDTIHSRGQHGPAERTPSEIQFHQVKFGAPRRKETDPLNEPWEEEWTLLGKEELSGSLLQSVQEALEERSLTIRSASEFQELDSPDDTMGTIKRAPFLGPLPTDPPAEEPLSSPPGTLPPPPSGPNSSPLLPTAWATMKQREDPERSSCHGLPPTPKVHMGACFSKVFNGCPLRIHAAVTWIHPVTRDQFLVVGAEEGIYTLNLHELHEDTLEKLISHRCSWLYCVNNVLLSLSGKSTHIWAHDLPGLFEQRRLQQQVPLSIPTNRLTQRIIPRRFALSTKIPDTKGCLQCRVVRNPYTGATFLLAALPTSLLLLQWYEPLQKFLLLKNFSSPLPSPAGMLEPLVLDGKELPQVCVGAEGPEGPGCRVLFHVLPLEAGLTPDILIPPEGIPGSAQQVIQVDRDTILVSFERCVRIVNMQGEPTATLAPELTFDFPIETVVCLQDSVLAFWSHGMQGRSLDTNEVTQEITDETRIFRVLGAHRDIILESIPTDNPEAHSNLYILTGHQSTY
Sequence of Activin receptor type-1 (Q04771 whole entry): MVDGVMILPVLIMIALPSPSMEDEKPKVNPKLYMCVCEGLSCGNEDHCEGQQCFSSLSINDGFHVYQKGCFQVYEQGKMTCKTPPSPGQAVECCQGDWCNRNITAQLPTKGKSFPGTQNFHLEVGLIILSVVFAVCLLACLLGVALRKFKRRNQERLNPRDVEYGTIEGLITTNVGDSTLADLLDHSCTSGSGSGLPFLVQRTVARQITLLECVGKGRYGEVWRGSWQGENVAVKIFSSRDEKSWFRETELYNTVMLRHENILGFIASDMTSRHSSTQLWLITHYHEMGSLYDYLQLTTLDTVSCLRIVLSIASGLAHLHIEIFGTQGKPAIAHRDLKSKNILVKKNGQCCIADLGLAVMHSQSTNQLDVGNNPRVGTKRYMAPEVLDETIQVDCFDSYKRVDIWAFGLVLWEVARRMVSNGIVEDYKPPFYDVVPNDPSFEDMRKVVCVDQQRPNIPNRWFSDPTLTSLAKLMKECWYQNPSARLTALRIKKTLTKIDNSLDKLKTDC
Sequence of 5'-AMP-activated protein kinase catalytic subunit alpha-1 (Q13131 whole entry): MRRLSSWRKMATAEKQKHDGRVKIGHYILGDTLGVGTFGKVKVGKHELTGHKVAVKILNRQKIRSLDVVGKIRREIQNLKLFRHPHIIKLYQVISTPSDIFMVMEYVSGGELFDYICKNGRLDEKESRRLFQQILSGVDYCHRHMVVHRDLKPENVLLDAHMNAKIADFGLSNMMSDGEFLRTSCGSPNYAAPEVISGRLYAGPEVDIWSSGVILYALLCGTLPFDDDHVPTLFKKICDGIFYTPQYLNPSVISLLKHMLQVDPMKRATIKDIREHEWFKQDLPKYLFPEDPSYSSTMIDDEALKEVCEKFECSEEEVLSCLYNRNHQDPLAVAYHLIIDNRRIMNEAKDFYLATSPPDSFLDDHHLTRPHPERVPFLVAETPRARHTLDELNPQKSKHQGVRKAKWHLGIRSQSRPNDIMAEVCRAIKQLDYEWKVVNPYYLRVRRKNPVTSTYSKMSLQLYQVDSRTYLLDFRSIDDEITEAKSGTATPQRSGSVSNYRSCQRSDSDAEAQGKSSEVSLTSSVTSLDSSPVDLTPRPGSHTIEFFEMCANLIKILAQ

- IC50 [1]: 5.77 µM (active)
- IC50 [2]: 8.72 µM (active)
Compound: COc1ccc(C(CNC(=O)c2cccc(S(=O)(=O)Nc3ccc(C)cc3)c2)N2CCCCC2)cc1 (stereo not given)

- Ki [3]: 1.58 µM (active)
- Ki [4]: 126 nM (active)
- Ki [5]: > 3.98 µM (inactive)
- Ki [6]: > 6.31 µM (inactive)
- Ki [7]: > 6.31 µM (inactive)
- Ki [8]: 3.16 µM (active)
- Ki [9]: 2.51 µM (active)
- Ki [10]: > 2.51 µM (inactive)
- Ki [11]: 631 nM (active)
- Ki [12]: > 3.98 µM (inactive)
- Ki [13]: 2 µM (active)
- Ki [14]: 31.6 nM (active)
- Ki [15]: > 2.51 µM (inactive)
- Ki [16]: > 2.51 µM (inactive)
- Ki [17]: > 2.51 µM (inactive)
- Ki [18]: 1.26 µM (active)
- Ki [19]: > 5.01 µM (inactive)
- Ki [20]: > 6.31 µM (inactive)
- Ki [21]: 316 nM (active)
- Ki [22]: 100 nM (active)
- Ki [23]: 126 nM (active)
- Ki [24]: > 3.16 µM (inactive)
- Ki [25]: 316 nM (active)
- Ki [26]: 1.58 µM (active)
- Ki [27]: 2 µM (active)
- Ki [28]: > 3.98 µM (inactive)
- Ki [29]: 31.6 nM (active)
- Ki [30]: 79.4 nM (active)
- Ki [31]: 1.26 µM (active)
- Ki [32]: 1.26 µM (active)
- Ki [33]: 316 nM (active)
- Ki [34]: > 3.98 µM (inactive)
- Ki [35]: 501 nM (active)
- Ki [36]: > 2.51 µM (inactive)
- Ki [37]: 2.51 µM (active)
- Ki [38]: 2 µM (active)
- Ki [39]: > 3.16 µM (inactive)
- Ki [40]: 158 nM (active)
- Ki [41]: 3.16 µM (active)
- Ki [42]: > 3.16 µM (inactive)
- Ki [43]: 2 µM (active)
- Ki [44]: > 3.98 µM (inactive)
- Ki [45]: 39.8 nM (active)
- Ki [46]: 39.8 nM (active)
- Ki [47]: > 5.01 µM (inactive)
- Ki [48]: 100 nM (active)
- Ki [49]: 501 nM (active)
- Ki [50]: > 6.31 µM (inactive)
- Ki [51]: 794 nM (active)
- Ki [52]: 1 µM (active)
- Ki [53]: > 3.16 µM (inactive)
- Ki [54]: 794 nM (active)
- Ki [55]: > 1.26 µM (inactive)
- Ki [56]: > 3.16 µM (inactive)
- Ki [58]: 398 nM (active)
- Ki [59]: 1.58 µM (active)
- Ki [60]: > 3.16 µM (inactive)
Compound: N#Cc1ccc2c(c1)C(c1ccc3c(n1)CCCC3O)C(=O)N2 (stereo not given)
- Ki [57]: 1.26 µM (active)
